Tests used:
[1] = test system: rumen microbial proteinases; assay: Protease activity of mixed rumen microbial cell enzyme source (casein substrate); type: biochemical, cows
Procedure: Two rumen-fistulated, nonlactating cows averaging 623±12.5 kg in weight were fed 5 kg dry matter (DM) of low quality timothy hay twice daily. About 2.5L of rumen fluid was collected through the fistula 4 hrs after the morning feeding at 07:00 hrs. Bulk feed particles were removed by sieving the fluid through a 0.5 mm strain. The fluid was then composited and then stored in a prewarmed (37° C.) thermal container.
A microbial powder was prepared using the acetone-butanol extraction procedure outlined by Mahadevan et al., “Preparation of protease from mixed rumen microorganisms and its use for the in vitro determination of true protein in feedstuffs,” Can. J. Anim. Sci. 67:55 (1987). About 500 g of this powder was prepared and stored at −20° C. Extraction of the proteases was accomplished by stirring 250 g of the powder with 1L of 4° C. cold water (for 1 hr) and then proceeding along Mahadevan's extraction procedure. Only extracts from the filtration with an XM-300 Amicon Filter, (approx. 300 000 molecular weight cutoff—under nitrogen gas), were made, washed twice with distilled water and the retentate freeze dried. This was referred to as the mixed microbial cell enzyme source. It was used in the protein adhesion tests and also in the parallel thiol and protease activity determinations.
Ten grams of the mixed microbial cell enzyme was dissolved in 100 ml warm (37° C.) 0.1 M phosphate buffer, pH 6.8, and used as an enzyme inoculant. The assay matrix consisted of 1 ml enzyme source, 1 ml 2% casein solution, 1 ml 01 M phosphate buffer and 1 ml of either the relevant level of surfactant or an equivalent amount of buffer. Ten levels of the two surfactants, polyoxyethylene sorbitan monoleate (Tween 80) and polyoxyethylene sorbitan monastearate (Tween 60) were tested, viz 0, 0.08, 0.16, 0.24, 0.32, 0.4, 0.8, 1.2, 1.6, and, 2.0% surfactant in the assay mixture.
The protease activity incubations were performed in 50 ml plastic centrifuge tubes, at 37° C. and under a stream of carbon dioxide gas. After 1.5 hr, 1 ml of the assay mixture was removed for the determination of thiols (SH) and disulfides (SS) (Sasago et al., “Determination of sulfhydryl and disulfide groups in milk by p-chloromercuribenzoate-diathizone method,” J. Dairy Sci. 46:1348-1351 (1963)). At the end of 2 hr incubation, the reaction was stopped with 1 ml of 15% TCA (trichloroacetic acid) solution, cooled to 4° C. under an icebath, and centrifuged at 10,000 for 10 min. The free amino acids in the supernatant were assayed using the ninhydrin method (Rosen, “a Modified Colorimetric Analysis For Amino Acids,” Arch. Biochim. Biophys. 67:10 (1957)). The optimal surfactant inclusion level was calculated by direct linear plots on the assumption that the Michaellis-Menten equation applied.

rumen cellulase activity = assay: In vitro cellulose degradation by rumen bacterial inoculum; type: biochemical, cows; conditions: 0.25% surfactant in reaction mixture; regression on initial 24 hr
Procedure: A bacterial fraction, largely free of protozoa, was prepared for the fermentation assays by using the procedure of Forsberg, “Some Effects of Arsenic on the Rumen Microflora; An In Vitro Study,” Can. J. Microbiol. 24:36 (1978). The digesta inoculum was resuspended and washed twice in an equivalent amount of 0.1 M phosphate buffer pH 6.8 to the rumen fluid. The inoculum provided both, the substrate and the enzyme used for cellulose degradation assay. Incubation periods were 0, 1.5, 3, 6, 12, 24, and 48 hr. Other incubation conditions were similar to those outlined in experiment 1 above. However, cellulose was determined by the method of Updergraff, supra, for the in vivo digestibility trial. The optimal level of Tween 80 obtained was adopted here and followed.

[2] = Griffin et al., 1972; cited from earlier work
[3] = Shelf life test, sensory panel rancidity score at 40° C.; type: physicochemical; conditions: 1000 ppm
Procedure: The nonionic surfactant polyoxyethylene 20 sorbitan monooleate (Polysorbate 80) is coated in an amount of 50% wt/wt onto silica particles (i.e., in the proportion 50 g. of Polysorbate 80 per 50 g. of silica), either without (control) or with added antioxidant. A shelf life test is performed by measuring, using a sensory panel, the level of rancid odor of samples stored at 40° C., with a rancidity score being assigned to each sample (with a score of 0 for no rancid odors and 10 for highest level of rancid odors. The results are shown in Table 13, below.

[4] = Accelerated oxidation, Rancimat test of Polysorbate 80 coating on silica; type: physicochemical
Procedure: Solid silica particles (LuctaCarrier™ silica, Lucta, S. A., Barcelona, Spain) are coated 50% wt/wt (based of the combined weight of the particles and coating) with a mixture of polyethylene 20 sorbitan monooleate (Polysorbate 80) and an amount of the antioxidants set forth in the tables, below, or no antioxidant as a control. The solid antioxidants (e.g., BHA or BHT) are dissolved in a suitable solvent (e.g., ethyl alcohol) and then mixed with the Polysorbate 80 at the listed concentration levels. The oxidative stability of the coating is then determined using the Rancimat test. Oxidative stability relates to how easily components of oil oxidize which creates off-flavors in the oil, and is measured by instrumental analysis using accelerated oxidation methods. American Oil Chemists' Society Official Method Cd 12-57 for Fat Stability: Active Oxygen Method (re'vd 1989); Rancimat (Laubli, M. W. and Bruttel, P. A., JOACS 63:792-795 (1986)); Joyner, N. T. and J. E. McIntyre, Oil and Soap (1938) 15:184 (modification of the Schaal oven test). The Rancimat method has been developed as the automated version of the AOM method (active oxygen method) for the determination of the induction time of fats and oils. In this method the highly volatile organic acids produced by autoxidation are absorbed in water and used to indicate the induction time. As used in the following tables, the abbreviations have the following meanings: […]

[5] = direct linear plots, Michaelis-Menten assumed

## polyoxyethylene sorbitan monastearate [Tween 60]
[1]; control=0
  Initial rate of proteinase activation: 98.04%
[1]; [5]
  Km (additive conc.), proteinase activation: 0.28 ± 0.02a %
  Vmax (maximum proteinase activation): 99.2 ± 2.7a %/unit additive conc.
Rumen cellulase activity
  Initial rate of cellulose degradation: 0.87b (0.28) μg/ml/hr
[2]
  HLB (hydrophile-lipophile balance): 14.9

## CCOc1ccc2c(c1)C(C)=CC(C)(C)N2 [EQ, ethoxyquin]
[3]; 1 week, score 0 (no rancid odors) to 10
  Rancidity Score: 1.0
[3]; 2 weeks
  Rancidity Score: 2.0
[3]; 6 weeks
  Rancidity Score: 3.5
[3]; 10 weeks
  Rancidity Score: 5.0

## Cc1cc(C(C)(C)C)c(O)c(C(C)(C)C)c1 [BHT, butylated hydroxytoluene]
[4]; Table 7, 200 ppm in Polysorbate 80 coating on silica
  Rancimat Stability: 1.75 h
[4]; Table 8, 200 ppm
  Rancimat Stability: 1.85 h
[4]; Table 9, 200 ppm
  Rancimat Stability: 4.45 h
[4]; Table 10, 200 ppm
  Rancimat Stability: 6.15 h

Source: patent publication US20040076659A1, “Additive for livestock feeds” (priority 1994, published 2004)
